Legend:
[1] = tested on: patients with Cocaine Use Disorder (CUD); assay: Phase 2 trial: anxiety (STAI) and depressive symptoms (BDI-II); format: in vivo, human; conditions: for anxiety symptoms by STAI: difference vs placebo not statistically significant (P=0.144 S-Anxiety, P=0.425 T-Anxiety); for depressive symptoms by BDI: difference vs placebo not statistically significant (P=0.696 BDI-II)
Protocol: (§1) This study was conducted in patients with CUD and consisted of about a 21-day screening period followed by a 7-day baseline period, a 98-day outpatient treatment period, and an end of study visit evaluation about 14 days after the last study drug administration ([…]. A). Study treatment was taken twice daily (separated by about 12-hour intervals) with food. For patients in the mavoglurant arm [mavoglurant (free form) provided as modified release formulation (e.g. in WO2014/199316)], an uptitration regimen was performed for 14 days (50 mg b.i.d. from Days 1 to 7 and 100 mg b.i.d from Days 8 to 14) and was followed by 200 mg b.i.d for 84 days.
Patient Reported Outcome included: • 1. The TLFB cocaine: is a cocaine assessment method that obtains estimates of daily cocaine intake and has been evaluated with clinical and nonclinical populations. Using a calendar, people provide retrospective estimates of their daily cocaine use over a specified time period that can vary up to 12 months from the interview date. Several memory aids can be used to enhance recall (e.g., calendar; key dates serve as anchors for reporting cocaine use). […] The method is recommended for use when relatively precise estimates of cocaine use are necessary, especially when a complete use pre-posttreatment). Clinically, the TLFB can be used to provide feedback about one's cocaine consumption in an effort to increase a client's motivation to change. • 2. The TLFB alcohol: is a drinking assessment method that obtains estimates of daily drinking and has been evaluated with clinical and nonclinical populations. Using a calendar, people provide retrospective estimates of their daily drinking over a specified time period that can vary up to 12 months from the interview date. Several memory aids can be used to enhance recall (e.g., calendar; key dates serve as anchors for reporting drinking; standard drink conversion). […] The method is recommended for use when relatively precise estimates of drinking are necessary, especially when a complete picture of drinking days (i.e., high- and low-risk days) is needed (evaluating drinking pre/post-treatment). Clinically, the TLFB can be used to provide feedback about one's drinking in an effort to increase a client's motivation to change. Overall, the Alcohol TLFB method provides a relatively accurate portrayal of drinking, and has both clinical and research utility. • 3. The BDI-II: is instrument endorsed by the National Institute for Health and Clinical Excellence for use in primary care in measuring baseline depression severity and responsiveness to treatment. • 4. The STAI: is an assessment tool for measuring the presence and severity of current symptoms of anxiety and a generalized propensity to be anxious. […]

[2] = tested on: patients with Cocaine Use Disorder (CUD); assay: Phase 2 trial: proportion of cocaine use days by TLFB self-report; format: in vivo, human; conditions: for difference between groups in monthly proportion of cocaine use: MMRM
Protocol: This was a Phase 2 randomized, patient- and investigator-blinded, placebo-controlled, parallel-group study.
Patients diagnosed with Cocaine Use Disorder (CUD) according to Diagnostic and Statistical Manual of Mental Disorders, 5th Ed.
as §1
The primary endpoint was the proportion of cocaine use days during the treatment period, assessed by timeline followback [TLFB] cocaine self-report report. The secondary endpoints included a weekly urine analysis for a log-transformed quantitative measure of cocaine metabolite benzoylecgonine (BE), safety assessments (clinical parameters, suicidal ideation, adverse events [AE] and serious adverse events [SAE] at every visit), and pre- and post-dose levels of mavoglurant in the plasma. Exploratory endpoints included Clinical Global Impression (CGI; 2 components: CGI-S [rated illness severity], CGI-I [rated change from baseline]).
For the primary endpoint, a Bayesian analysis was conducted on the proportion of cocaine use days. It was assumed to be a continuous outcome with a normal distribution. The proportion of cocaine use days over the treatment period was analyzed using an analysis of covariance (ANCOVA) model with baseline use as a covariate. The profiles of consumption over time were compared between treatment groups through analyses of longitudinal data (weekly use and monthly use) using linear mixed model for repeated measures (MMRM). The model evaluated the posterior probability that the difference in proportions of cocaine use days between mavoglurant and placebo was <0 and that it was <−10%. A difference of 10% of days was deemed the minimal clinically relevant effect and a difference of 20% would be a very promising effect based on the literature in this indication. The study was deemed to show a positive signal of efficacy if the following two proof of concept (PoC) criteria were met:
The primary endpoint was the proportion of cocaine use days by TLFB during the treatment period (Day 1 to last day of treatment). For each subject, the proportion of cocaine use days was calculated by dividing the number of days of cocaine use during the treatment period with the treatment period, i.e., 98 days for completers and number of days between Day 1 and day of last dose in case of premature discontinuation of study treatment. Cocaine consumption was recorded daily (Yes/No) using the TLFB during the entire study.
Patient Reported Outcome included: • 1. The TLFB cocaine: is a cocaine assessment method that obtains estimates of daily cocaine intake and has been evaluated with clinical and nonclinical populations. Using a calendar, people provide retrospective estimates of their daily cocaine use over a specified time period that can vary up to 12 months from the interview date. Several memory aids can be used to enhance recall (e.g., calendar; key dates serve as anchors for reporting cocaine use). […] The method is recommended for use when relatively precise estimates of cocaine use are necessary, especially when a complete use pre-posttreatment). Clinically, the TLFB can be used to provide feedback about one's cocaine consumption in an effort to increase a client's motivation to change. • 2. […]

In the case of `COC(=O)N1CC[C@@H]2[C@H]1CCC[C@@]2(O)C#Cc1cccc(C)c1` [mavoglurant, (-)-(3aR,4S,7aR)-4-Hydroxy-4-m-tolylethynyl-octahydro-indole-1-carboxylic acid methyl ester], the “anxiety symptoms by STAI” value [1] is reported as “reduced nonsignificantly”, the “anxiety symptoms by STAI” value ([1]; listed as Mavoglurant) is reported as “reduced anxiety and depressive symptoms” and the “depressive symptoms by BDI” value [1] is reported as “reduced nonsignificantly”. The “depressive symptoms by BDI” value ([1]; listed as Mavoglurant) was “reduced anxiety and depressive symptoms”, the “cocaine use by TLFB, difference mavoglurant-placebo (result in words)” value ([2]; 98-day administration, P=0.021, listed as Mavoglurant) was “reduced cocaine consumption significantly” and the “P(θmavoglurant−θplacebo<0|data), PoC criterion 1” value ([2]; Bayesian analysis over the treatment period (14 weeks), criterion met (P>0.90)) was 0.999. For the same compound, the “P(θmavoglurant−θplacebo<−10%|data), PoC criterion 2” value ([2]; Bayesian analysis over the treatment period (14 weeks), criterion not met (P<0.50)) was 0.366, the “difference between groups in monthly proportion of cocaine use” value ([2]; Month 2, P=0.042) was 8% and the “difference between groups in monthly proportion of cocaine use” value ([2]; Month 3, P=0.003) was 14%. For the same compound, the “posterior probability in reducing cocaine use, treatments difference <0” value ([2]; cocaine TLFB, 98-day administration (50/100 mg b.i.d. uptitration, then 200 mg b.i.d. 84 days, modified release), mavoglurant vs placebo, Bayesian analysis) was 99.0%, the “posterior probability in reducing cocaine use, treatments difference <−10%” value ([2]; cocaine TLFB, 98-day administration, mavoglurant vs placebo, Bayesian analysis) was 36.6% and the “difference between groups in proportion of cocaine use days” value ([2]; over the treatment period (14 weeks), mavoglurant vs placebo) was 8.7%. For the same compound, the “observed difference between mavoglurant and placebo in proportion of cocaine use days” value ([2]; over the treatment period, FIG. 2B) was −0.087.

Reference: patent publication US20240050408A1, “USE OF MGLUR5 ANTAGONISTS FOR TREATING AMPHETAMINE ADDICTION” (NOVARTIS AG, priority 2020, published 2024)
